Experimental data taken from patent publication US9169315B2, “Heparin cofactor II fragments with anti-inflammatory and anti-coagulant activity” (XIMMUNE AB, priority 2009, dated 2015).
No end group written: not given here.

Columns and labels:
[1] = system: E. coli, P. aeruginosa and S. aureus; experiment: Viable count assay; type: cell-based; conditions: for Antibacterial activity in viable count assays / Time within which bacterial killing occurred: 10 mM Tris, 0.15 M NaCl; for Antibacterial activity in viable count assays: with or without 20% human citrate plasma; for Time within which bacterial killing occurred: 30 μM, pH 7.4, 20% plasma
Description: E. coli ATCC 25922 bacteria were grown to mid-logarithmic phase in Todd-Hewitt (TH) medium. Bacteria were washed and diluted in 10 mM Tris, pH 7.4 containing 5 mM glucose. E. coli ATCC 25922 ([…]; 2×10^6 cfu/ml) were incubated, at 37° C. for 2 h with peptides at the indicated concentrations. Other experiments with the TFPI-peptides and LL-37 were performed in 10 mM Tris, pH 7.4, containing also 0.15 M NaCl, with normal or heat inactivated 20% citrate-plasma (PP). Serial dilutions of the incubation mixture were plated on TH agar, followed by incubation at 37° C. overnight and cfu determination.
(§1) E. coli ATCC 25922, P. aeruginosa 15159, or S. aureus ATCC 29213 bacteria were grown to mid-logarithmic phase in Todd-Hewitt (TH) medium (Becton and Dickinson, Maryland, USA). The microorganisms were then washed and diluted in 10 mM Tris, pH 7.4 containing 5 mM glucose. Following this, bacteria (50 μl; 2×10^6 cfu/ml) were incubated, at 37° C. for 2 hours, with KYE28, KYE21 or LL-37 (at 0.03, 0.06, 0.3, 0.6, 3, 6, 30, 60 μM) in 10 mM Tris, 0.15 M NaCl, with or without 20% human citrate-plasma. To quantify the bactericidal activity, serial dilutions of the incubation mixtures were plated on TH agar, followed by incubation at 37° C. overnight and the number of colony-forming units was determined. 100% survival was defined as total survival of bacteria in the same buffer and under the same condition in the absence of peptide. Significance was determined using the statistical software SigmaStat (SPSS Inc., Chicago, Ill., USA).
as §1, with “NLF20” for “KYE28, KYE21”, “citrate-plasma. In the experiments using 50% whole blood, S. aureus ATCC 29213 and P. aeruginosa ATCC 27853 bacteria (50 μl; 2×10^8 cfu/ml) were incubated at 37° C. for 1 hour in the presence of peptide at 60 (for P. aeruginosa) and 120 μM (P. aeruginosa and S. aureus).” for “citrate-plasma.”

[2] = system: Escherichia coli, Pseudomonas aeruginosa, Bacillus subtilis, Staphylococcus aureus, Candida albicans, Candida parapsilosis; experiment: Radial diffusion assay (RDA); type: cell-based; conditions: peptide at 100 μM; compared with LL-37
Description: Essentially as described earlier, bacteria were grown to mid-logarithmic phase in 10 ml of full-strength (3% w/v) trypticase soy broth (TSB) (Becton-Dickinson). The microorganisms were then washed once with 10 mM Tris, pH 7.4. Subsequently, 4×10^6 cfu were added to 15 ml of the underlay agarose gel, consisting of 0.03% (w/v) TSB, 1% (w/v) low electroendosmosis type (EEO) agarose (Sigma-Aldrich) and 0.02% (v/v) Tween 20 (Sigma-Aldrich). The underlay was poured into a Ø 144 mm petri dish. After agarose solidification, 4 mm-diameter wells were punched and 6 μl peptide solution of required concentration added to each well. Plates were incubated at 37° C. for 3 h to allow peptide diffusion. The underlay gel was then covered with 15 ml of molten overlay (6% TSB and 1% Low-EEO agarose in distilled H2O). Antimicrobial activity of a peptide was visualized as a zone of clearing around each well after 18-24 h of incubation at 37° C.
Essentially as described earlier (Lehrer, Rosenman et al. 1991; Andersson, Rydengård et al. 2004), bacteria were grown to mid-logarithmic phase in 10 ml of full-strength (3% w/v) trypticase soy broth. (TSB) (Becton-Dickinson). The microorganisms were then washed once with 10 mM Tris, pH 7.4. Subsequently, 4×10^6 cfu were added to 15 ml of the underlay agarose gel, consisting of 0.03% (w/v) TSB, 1% (w/v) low electroendosmosis type (EEO) agarose (Sigma-Aldrich) and 0.02% (v/v) Tween 20 (Sigma-Aldrich). The underlay was poured into a Ø 144 mm petri dish. After agarose solidification, 4 mm-diameter wells were punched and 6 μl peptide solution of required concentration added to each well. Plates were incubated at 37° C. for 3 h to allow peptide diffusion. The underlay gel was then covered with 15 ml of molten overlay (6% TSB and 1% Low-EEO agarose in distilled H2O). Antimicrobial activity of a peptide was visualized as a zone of clearing around each well after 18-24 h of incubation at 37° C. […]

Sequence	Antibacterial activity in viable count assays [1]	Antimicrobial activity in RDA (zones of clearance) [2]	Time within which bacterial killing occurred [1]	Antibacterial activity in presence of human citrated plasma (viable count) ([1]; 20% human citrate plasma vs buffer)
KYEITTIHNLFRKLTHRLFRR [KYE21]	significant antibacterial activity	activities were similar to those observed for		
NLFRKLTHRLFRRNFGYTLR [NLF20]	displays significant antibacterial activity	well exceeded those observed for	5 to 20 min	retained, and for E. coli and S. aureus, even enhanced
KYEITTIHNLFRKLTHRLFRRNFGYTLR [KYE28]	significant antibacterial activity	activities were similar to those observed for	5 to 20 min	
